Experimental data as given in patent US20250205191A1, “R(-)-MDMA COMPOSITIONS AND METHODS OF TREATMENT” (EmpathBio, Inc., priority 2023, published 2025).

Tests used:
oxytocin = test: Phase 1 hormone response, oxytocin; type: in vivo, human; conditions: any cohort vs placebo group
healthy volunteers [1] = test: Phase 1 Self-Compassion Scale (SCS); type: in vivo, human
Excerpt: Self-compassion is defined as being open to and moved by one's own suffering, experiencing feelings of caring and kindness toward oneself, taking an understanding, non-judgmental attitude toward one's inadequacies and failures, and recognizing that one's own experience is part of the common human experience (Neff, K. D., 2003. The development and validation of a scale to measure self-compassion. Self and Identity, 2, 223-250). The Self-Compassion Scale is an assessment tool designed to measure three core components of self-compassion: self-kindness, common humanity and mindfulness. (SCS; Neff, K. D., 2011. Self-compassion: Stop beating yourself up and leave insecurity behind. New York, NY: Harper Collins) The total self-compassion score is the total of the scores of the sub-items: self-kindness, self-judgement (reversed), common humanity, isolation (reversed), mindfulness and over-identification (reversed).

[2] = target: T1, human 5-HT2C (non-edited) receptor (Homo sapiens, UniProt P28335); test: 5-HT2C (non-edited) agonism, inositol monophosphate accumulation (HTRF), CHO-K1 recombinant cells; type: cell-based
T1 construct: expressed in transfected cells; host or cells: CHO-K1
T1 sequence (P28335 33-458): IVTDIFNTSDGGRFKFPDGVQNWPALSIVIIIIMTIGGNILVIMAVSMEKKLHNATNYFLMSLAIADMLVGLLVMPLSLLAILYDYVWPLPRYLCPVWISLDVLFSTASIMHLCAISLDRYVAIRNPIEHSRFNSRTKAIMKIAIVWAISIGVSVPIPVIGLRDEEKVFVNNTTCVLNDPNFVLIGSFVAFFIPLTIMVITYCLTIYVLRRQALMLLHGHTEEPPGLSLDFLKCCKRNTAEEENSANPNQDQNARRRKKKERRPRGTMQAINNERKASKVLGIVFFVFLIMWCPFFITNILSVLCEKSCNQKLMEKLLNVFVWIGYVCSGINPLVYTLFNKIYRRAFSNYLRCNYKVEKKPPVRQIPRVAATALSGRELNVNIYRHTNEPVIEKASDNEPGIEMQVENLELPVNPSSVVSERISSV

healthy volunteers [3] = test: 11-Dimensions-Altered States of Consciousness (11D-ASC); type: in vivo, human
healthy volunteers [4] = test: Phase 1 exploratory Visual Analog Scale (VAS); type: in vivo, human; conditions: vs placebo; dose-dependent pattern
Excerpt: VAS measure changes in subjective experience that are typical in healthy human volunteer studies. These include experiences such as Happy, Open, Loving, Close to Others, Sociable, and Lonely.

healthy volunteers [5] = test: Phase 1 clinical study, safety and tolerability; type: in vivo, human
Excerpt: The primary endpoints assessed the safety, tolerability, pharmacokinetics (PK), and exploratory pharmacodynamic (PD) observations. Treatment-related adverse events (AEs) were in line with expectations (e.g., nausea at 29.2%, headache at 16.7%) and generally dose dependent.

healthy volunteers [6] = test: Phase 1 Spoken Intensity Rating Scale (SIRS); type: in vivo, human
Experimental: Beyond 8 hours postdose, mean SIRS scores remained ≤0.5 in all cohorts.

healthy volunteers [7] = test: Facial Emotion Recognition Test (FERT); type: in vivo, human
male C57BL/6J mice [8] = test: Mouse head twitch response (HTR); type: in vivo; conditions: 3 mg/kg IP, 30 min, vs vehicle control group
Experimental: Mouse Head Twitch (HTR) is a side-to-side rotational head movement in rodents that is widely employed as a behavioral measure of 5-HT2A receptor activation (Halberstadt and Geyer 2013). […] Animals with head mounted magnets were dosed intraperitoneally and immediately tested for HTR for 30 min using an automated magnetometer detection system (Halberstadt and Geyer 2013).

human 5-HT2A receptor = target: T2, human 5-HT2A receptor (Homo sapiens, UniProt P28223); test: 5-HT2A agonism, inositol monophosphate accumulation (HTRF), CHO-K1 recombinant cells; type: cell-based
T2 construct: expressed in transfected cells; host or cells: CHO-K1

male C57BL/6J mice [9] = test: Mouse extinction of fear learning assay; type: in vivo; conditions: vs vehicle
Experimental: Extinction of fear learning in rodents is a useful assay to understand if compounds have the potential to enhance learning processes that may be involved in recovery from SAD and other stress and anxiety related disorders, due to its resemblance to exposure-based therapy in humans. […] Freezing behavior, an indicator of the fear response, was measured in the presence of the CS during the extinction training session (Day 1) and the day after (Day 2, Extinction Testing, in the absence of test article). Locomotor activity was measured during the initial 2-minute habituation period, prior to the presentation of the CS, on Days 1 and 2.

healthy volunteers [10] = test: Phase 1 Challenging Experiences Questionnaire (CEQ); type: in vivo, human; conditions: 6.5 hours post dosing
Excerpt: Seven Challenging Experiences Questionnaire (CEQ) factors (grief, fear, death, insanity, isolation, physical distress, and paranoia) provide a phenomenological profile of challenging aspects of experiences with R(−)-MDMA.

healthy volunteers [11] = test: Phase 1 Emotional Breakthrough Inventory (EBI); type: in vivo, human
Excerpt: Self-reported Emotional Breakthrough Inventory (EBI) include facing emotionally difficult feelings that are usually pushed aside; experiencing resolution of a personal conflict or trauma; ability to explore challenging emotions and memories; having an emotional breakthrough; achieving a sense of closure on an emotional problem; and achieving emotional release followed by sense of relief. Emotional breakthrough is an important and distinct component of the acute psychedelic experience that appears to be a key mediator (state predictor) of subsequent longer-term psychological changes in psychiatric populations. (Carhartt-Harris, et al., Trial of Psilocybin versus Escitalopram for Depression, N Engl J Med 2021; 384:1402-1411).

[12] = single oral 75-225 mg, healthy participants

T2 sequence (P28223 whole entry): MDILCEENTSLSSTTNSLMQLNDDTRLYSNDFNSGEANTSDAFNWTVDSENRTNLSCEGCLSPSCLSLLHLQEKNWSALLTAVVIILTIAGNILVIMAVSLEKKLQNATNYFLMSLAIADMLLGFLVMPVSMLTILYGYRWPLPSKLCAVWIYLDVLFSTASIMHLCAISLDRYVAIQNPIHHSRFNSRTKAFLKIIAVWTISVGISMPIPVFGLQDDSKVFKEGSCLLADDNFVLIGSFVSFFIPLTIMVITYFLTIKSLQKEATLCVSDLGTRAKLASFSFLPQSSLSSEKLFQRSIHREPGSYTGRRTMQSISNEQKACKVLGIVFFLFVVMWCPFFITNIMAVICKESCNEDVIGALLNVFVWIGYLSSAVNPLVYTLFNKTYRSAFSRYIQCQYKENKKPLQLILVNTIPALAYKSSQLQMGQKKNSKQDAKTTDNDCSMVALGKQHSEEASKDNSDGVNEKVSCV

## CN[C@H](C)Cc1ccc2c(c1)OCO2 [R(−)-MDMA, R(−)-3,4-methylenedioxymethamphetamine]
oxytocin
  oxytocin production: did not appear to have an effect
Healthy volunteers [1]; 225 mg group, 1 week of follow-up
  SCS self-kindness score, mean: 4.1
Healthy volunteers [1]; 225 mg group, before dosing
  SCS self-kindness score, mean at baseline: 3.9
Healthy volunteers [1]; higher doses, 1 week of follow-up
  self-compassion (self-kindness) scores: significantly increased
[2]; 5-HT2C (non-edited) receptors
  agonism in words: high potency full agonism
[2]; 5-HT2C (non-edited), relative to α-Me-5-HT at its EC100
  Efficacy (% of a-Me-5-HT response): 97.9%
Healthy volunteers [3]; 225 mg dose group vs comparators of FIG. 11
  11D-ASC changed meaning of percepts: strongest
Healthy volunteers [3]; 75-225 mg oral
  11D-ASC response profile: psychedelic-like response
Healthy volunteers [4]
  VAS scores for positive affect (happy, loving, openness, less loneliness): increased VAS scores compared to placebo
Healthy volunteers [5]; highest dose (225 mg)
  bruxism: observed in a single subject
Healthy volunteers [5]; single oral 75-225 mg
  peak body temperatures: within the normal range
  serious or severe AEs: no serious or severe AEs were observed
  study discontinuations: no study discontinuations
Healthy volunteers [5]; [12]
  treatment-related adverse event: headache: 16.7%
  treatment-related adverse event: nausea: 29.2%
Healthy volunteers [5]; single oral 75-225 mg, limited dose dependency
  blood pressure and heart rate: Non-clinically significant increases
Healthy volunteers [6]; 75-225 mg oral
  SIRS dose response: strong dose response
Healthy volunteers [6]; all cohorts, beyond 8 hours postdose
  mean SIRS scores: ≤ 0.5
Healthy volunteers [6]; fasted state, each cohort, 1 to 2 hours postdose
  mean SIRS scores: small nominal increases from Baseline
Healthy volunteers [7]; 75 mg
  reduction in the recognition of angry (threatening) faces: 13.2%
Healthy volunteers [7]; 125 mg
  reduction in the recognition of angry (threatening) faces: 12.3%
Healthy volunteers [7]; 175 mg
  reduction in the recognition of angry (threatening) faces: 8.8%
Healthy volunteers [7]; 225 mg
  misclassifications to happy faces, change from baseline (mean): +1.16
  reduction in the recognition of angry (threatening) faces: 12.4%
Male C57BL/6J mice [8]
  head twitch response (HTR): significantly increased
Human 5-HT2A receptor; 5-HT2A receptors
  agonism in words: moderate potency partial agonism
Human 5-HT2A receptor; 5-HT2A, CHO-K1, IP accumulation
  EC50: 3.34 µM
Human 5-HT2A receptor; 5-HT2A, relative to α-Me-5-HT at its EC100
  Efficacy (% of a-Me-5-HT response): 69.3%
Male C57BL/6J mice [9]; 10 mg/kg IP once
  freezing behavior: significantly reduced freezing behavior on Day 2 only
  locomotor activity: significantly increased activity on Day 1 only
Male C57BL/6J mice [9]; 17 mg/kg IP once
  freezing behavior: significant reductions of freezing behavior on Days 1 and 2
  locomotor activity: significantly increased activity on Day 1 only
Male C57BL/6J mice [9]; 30 mg/kg IP once
  freezing behavior: significant reductions of freezing behavior on Days 1 and 2
  locomotor activity (activity counts): significant increases in activity counts on Days 1 and 2
Healthy volunteers [10]
  CEQ changes from baseline: clear dose-dependent response with statistical significance at higher doses
Healthy volunteers [11]; 225 mg vs placebo
  EBI, acute experience of emotional breakthroughs: significantly higher
Healthy volunteers [11]; 75-225 mg
  EBI, acute experience of emotional breakthroughs, dose response: dose-dependent increase
